The experiment deals with hROMK (hKir1.1) (Homo sapiens (Human), UniProt P48048). Briefly: Thallium Flux Assay (ROMK channel functional thallium flux, FLIPR-Tetra). The format is cell-based. The note with it: HEK293 cells stably expressing hROMK (hKir1.1); unit not given in Table 4 (IC50 potencies less than 1 μM); read-out: ROMK TI IC50. The protocol:
Cell Culture Conditions—HEK293 cells stably expressing hROMK (hKir1.1) were grown at 37° C. in a 10% CO2 humidified incubator in complete growth media: Dulbecco's Modified Eagle Medium supplemented with non-essential amino acids, Penicillin/Streptomycin/Glutamine, G418 and FBS. At >80% confluency, the media was aspirated from the flask and rinsed with 10 mL calcium/magnesium-free PBS. […] To dislodge the cell, the side of the flask was gently banged with one's hand. The cells completely titrated and then the cells were transferred to 25 mL complete media, centrifuged at 1,500 rpm for 6 min followed by resuspension in complete growth media and determine cell concentration. […] Under ideal growth conditions and appropriate tissue culture practices, this cell line is stable for 40-45 passages.
FluxOR Kit Components (Invitrogen F10017)
• FluxOR™ Reagent (Component A) • FluxOR™ Assay Buffer (Component B)—10× Concentrate • PowerLoad™ Concentrate (Component C)—100× Concentrate • Probenecid (Component D)—Lyophilized sample is kept at −20° C. Water soluble, 100× after solubilization in 1 mL water. […] Store at 4° C. • Thallium sulfate (Tl2SO4) Concentrate (Component G)—50 mM in water. […] Can be stored at room temperature • Stimulant Buffer (prepared at 5× final concentration in 1× FluxOR™Chloride-Free Buffer): 7.5 mM thallium sulfate and 0.75 mM potassium sulfate (to give a final assay concentration of 3 mM Thallium/0.3 mM potassium). Store at 4° C. when not in use. If kept sterile, this solution is good for months.
• 1. Seed HEK-hKir1.1 cells (50 μl at 20,000 cells/well) in 384-well PDL coated Microplates • 2. Allow cells to adhere overnight in humidified 37° C./10% CO2 incubator • 3. Completely remove cell growth media from microplate and replace with 25 μl loading buffer • 4. Incubate Microplate at room temperature, protected form light, for 90 min • 5. Remove loading buffer and replace with 25 μl 1× Assay Buffer±test compound. • 6. Incubate microplate at room temperature, protected from light, for 30 min • 7. […] Excitation=400 nm, Emission=460 & 580 nm. Collect data for ˜10 min.
Data Calculation—The fluorescence intensity of wells containing 3 μM of a standard control ROMK inhibitor of the present invention was used to define the ROMK-sensitive component of thallium flux. Fluorescence in the presence of test compounds was normalized to control values to provide % fluorescence change.

hROMK (hKir1.1), sequence (P48048 whole entry): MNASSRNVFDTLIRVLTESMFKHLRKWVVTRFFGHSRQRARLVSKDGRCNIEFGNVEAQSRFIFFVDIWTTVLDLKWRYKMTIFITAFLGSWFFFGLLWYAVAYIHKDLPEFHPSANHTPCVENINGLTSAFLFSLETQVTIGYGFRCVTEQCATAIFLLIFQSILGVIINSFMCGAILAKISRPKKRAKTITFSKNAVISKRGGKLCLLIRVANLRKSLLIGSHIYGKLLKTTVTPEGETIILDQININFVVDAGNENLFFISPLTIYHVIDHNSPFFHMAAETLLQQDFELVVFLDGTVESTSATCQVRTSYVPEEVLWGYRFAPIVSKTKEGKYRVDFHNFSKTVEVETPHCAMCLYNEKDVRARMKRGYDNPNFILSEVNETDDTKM

For the compound `Cc1cc2c(cc1C(O)CN1CCC3(CC1)CCN(c1ccc(C#N)cn1)C3)COC2=O` (single isomer, unassigned) [Example 24A, 6-(8-(2-Hydroxy-2-(6-methyl-1-oxo-1,3-dihydroisobenzofuran-5-yl)ethyl)-2,8-diazaspiro[4.5]decan-2-yl)nicotinonitrile], the IC50 turned out to be 17.6 nM.
As for `Cc1cc2c(cc1C(O)CN1CCC3(CC1)CCN(c1ccc(C#N)cn1)C3)COC2=O` (single isomer, unassigned) [Example 24B, 6-(8-(2-Hydroxy-2-(6-methyl-1-oxo-1,3-dihydroisobenzofuran-5-yl)ethyl)-2,8-diazaspiro[4.5]decan-2-yl)nicotinonitrile], the figure is 31.4 nM; as for `Cc1c([C@@H](O)CN2CCC3(CC2)CC(=O)N(c2ccc(C#N)cn2)C3)ccc2c1COC2=O` [Example 1, (R)-6-(8-(2-hydroxy-2-(4-methyl-1-oxo-1,3-dihydroisobenzofuran-5-yl)ethyl)-3-oxo-2,8-diazaspiro[4.5]decan-2-yl)nicotinonitrile], 10.5 nM.
The same measure for `Cc1cc2c(cc1C(O)CN1CCC3(CC1)CC(=O)N(c1ccc(C#N)cn1)C3)COC2=O` (stereo not drawn) [Example 2, 6-(8-(2-hydroxy-2-(6-methyl-1-oxo-1,3-dihydroisobenzofuran-5-yl)ethyl)-3-oxo-2,8-diazaspiro[4.5]decan-2-yl)nicotinonitrile]: 23 nM; for `Cc1c([C@@H](O)CN2CCC3(CC2)CCN(c2ccc(C#N)cn2)C3)ccc2c1COC2=O` [Example 3, (R)-6-(8-(2-hydroxy-2-(4-methyl-1-oxo-1,3-dihydroisobenzofuran-5-yl)ethyl)-2,8-diazaspiro[4.5]decan-2-yl)nicotinonitrile]: 10 nM.
As for `Cc1c(CCN2CCC3(CC2)CC(=O)N(c2ccc(C#N)cn2)C3)ccc2c1COC2=O` [Example 4, 6-(8-(2-(4-methyl-1-oxo-1,3-dihydroisobenzofuran-5-yl)ethyl)-3-oxo-2,8-diazaspiro[4.5]decan-2-yl)nicotinonitrile], the figure is 12 nM; as for `Cc1c([C@@H](O)CN2CCC3(CC2)CCN(c2ccc(C#N)cn2)C3=O)ccc2c1COC2=O` [Example 5, 6-{8-[(2R)-2-hydroxy-2-(4-methyl-1-oxo-1,3-dihydro-2-benzofuran-5-yl)ethyl]-1-oxo-2,8-diazaspiro[4.5]dec-2-yl}pyridine-3-carbonitrile], 37 nM; as for `Cc1c([C@@H](O)CN2CCC3(CC2)CC(=O)N(c2ccc(-n4cnnn4)cn2)C3)ccc2c1COC2=O` [Example 6, (R)-2-(5-(1H-tetrazol-1-yl)pyridin-2-yl)-8-(2-hydroxy-2-(4-methyl-1-oxo-1,3-dihydroisobenzofuran-5-yl)ethyl)-2,8-diazaspiro[4.5]decan-3-one], 92.5 nM.
As to `COc1cc(N2CCC3(CCN(C[C@H](O)c4ccc5c(c4C)COC5=O)CC3)C2)ncc1C#N` [Example 7, (R)-6-(8-(2-Hydroxy-2-(4-methyl-1-oxo-1,3-dihydroisobenzofuran-5-yl)ethyl)-2,8-diazaspiro[4.5]decan-2-yl)-4-methoxynicotinonitrile], the IC50 was 21.5 nM.
As for `Cc1c([C@@H](O)CN2CCC3(CC2)CCN(c2cncc(C#N)c2)C3)ccc2c1COC2=O` [Example 12, (R)-5-(8-(2-Hydroxy-2-(4-methyl-1-oxo-1,3-dihydroisobenzofuran-5-yl)ethyl)-2,8-diazaspiro[4.5]decan-2-yl)nicotinonitrile], the figure is 33 nM; as for `Cc1c([C@@H](O)CN2CCC3(CC2)CCN(c2cc(C#N)ccn2)C3)ccc2c1COC2=O` [Example 13, (R)-2-(8-(2-Hydroxy-2-(4-methyl-1-oxo-1,3-dihydroisobenzofuran-5-yl)ethyl)-2,8-diazaspiro[4.5]decan-2-yl)isonicotinonitrile], 26 nM; as for `Cc1c([C@@H](O)CN2CCC3(CC2)CC(=O)N(c2ccc(C#N)cc2)C3)ccc2c1COC2=O` [Example 14, (R)-4-(8-(2-Hydroxy-2-(4-methyl-1-oxo-1,3-dihydroisobenzofuran-5-yl)ethyl)-3-oxo-2,8-diazaspiro[4.5]decan-2-yl)benzonitrile], 15 nM.

The IC50 is the point on the concentration scale where inhibition reaches its midpoint.
